In PubChem BioAssay (NCI) one finds TGI and GI50 data, which are given here for 20 compounds.

What all share (assay): inhibition of tumour cell growth, NCI panel, 48 h
Test [1] relates to KM12 colon.
Test [2] has as its system HCT-15 colon.
For test [3], the system named is UO-31 renal.
Test [4] relates to ACHN renal.
In test [5] the test system is SR leukemia.
For test [6], the system named is SK-MEL-5 melanoma.
Test [7] relates to OVCAR-8 ovarian.
Test [8] concerns SK-OV-3 ovarian.
Test [9] deals with NCI-H23 lung.
In test [10] the test system is K-562 leukemia.

The structures appear in SMILES notation. Where “and” joins values, the source holds several entries; their conditions need not be identical. Identical values can stand only once.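 All cell lines were grown in 96-well plates and treated with compound for 48 hours. Here, GI50 denotes the concentration required for 50% inhibition of growth. The concentration for full growth arrest is given as TGI.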 A value given as a limit tells only on which side of the number the result lay.

For `Cc1c(C(=O)CSc2nc3ccccc3[nH]2)c(=O)n(-c2ccccc2)n1C`, the TGI in [1], in test [2], in test [3], in test [4], in [5] and in test [6] was above 100 µM each time. For the same compound, the TGI in test [7], in test [8] and in test [9] was above 100 µM throughout.

Take `COc1cccc(/C=C/C(=O)c2cc3c(N)c(C(=O)Nc4cccc5ccccc45)sc3nc2C)c1`: the GI50 was 1.4 µM in test [1]; 0.624 µM in test [2]; 0.889 µM in [3]; 1.23 µM in [4]; 0.296 µM in test [5]; 1.21 µM in test [6]. Moreover, the GI50 is 0.562 µM in [10], 1.23 µM in [7], 2.24 µM in [8] and 1.96 µM in [9]. The TGI was 4.77 µM in [1]; 1.86 µM in test [2]; 2.08 µM in [3]; 4.36 µM in test [4]; above 50 µM in test [5]; 3.09 µM in test [6]. Further, the TGI in [10] is above 50 µM; in test [7], 4.08 µM; in [8], above 50 µM; in [9], above 50 µM.

With `CC1CCC2N(C1)CC1C3(O)CC45OC6(O)C(O)CCC4(C)C6CCC5C3(O)CC(O)C1(O)C2(C)O` (stereo unspecified), the TGI in [1], in test [2], in test [3], in [4], in [5] and in [6] was above 100 µM each time. The TGI in test [10], in [7], in [8] and in [9] was above 100 µM each time.

As to `CCOC(=O)C(NC(=O)c1[nH]cnc1/N=N/N(C)C)C(C)C` (stereo unspecified), the TGI in [1], in test [2], in [3], in [4], in [5] and in test [6] was above 100 µM in each case. The TGI in [10], in test [7], in test [8] and in test [9] was above 100 µM in each case.

With `O=C1c2ccccc2C(=O)c2nc3ccc(Cl)cc3cc21`, the TGI in test [1], in test [2], in test [3], in test [4], in test [5] and in test [6] was above 100 µM each time. Besides, the TGI in [10], in test [7], in test [8] and in test [9] was above 100 µM each time.

Turning to `CC(=O)N(Cc1ccccc1)c1ccccc1I(=O)=O`, the GI50 in test [1] is 42 µM; in test [2], 19.8 µM; in test [3] it was 38 µM; in test [4], 36 µM; in [5] it was 0.18 µM; in test [6], 33.6 µM. The GI50 is 14 µM in [10], 48.3 µM in test [7], 81.1 µM in [8] and 37.8 µM in test [9]. Moreover, the TGI in test [1] is above 100 µM; in [2], 40.5 µM; in test [3], above 100 µM; in [4], above 100 µM; in test [5] it was 4.37 µM; in test [6], above 100 µM. In addition, the TGI in [10] is 29.5 µM; in test [7] it was above 100 µM; in test [8], above 100 µM; in [9], above 100 µM.

As for `COc1ccc2nc3ccccc3c(NCCCCN(C)CCCl)c2c1`, the TGI in [1] worked out at 0.4 µM; in test [2], 0.494 µM; in test [3], 1.22 µM; in test [4], 0.132 µM; in test [5], 0.0355 µM; in test [6] it was 0.442 µM. Further, the figures for the TGI in [10], in test [8] and in test [9] were 0.93 µM, 0.469 µM and above 100 µM, respectively.

On to `Cc1ccc(NC(=O)CC(=O)N2N=C(N(CCC#N)c3cccc(C)c3)CC2c2ccccc2)cc1` (stereo unspecified), for which the TGI in test [1], in [2], in test [3], in test [4], in test [5] and in test [6] was above 100 µM in each case. Besides, the TGI in test [10], in test [7], in [8] and in test [9] was above 100 µM each time.

On to `CO[C@@]12[C@@H]3NC3CN1C1=C(C(=O)C(N)=C(C)C1=O)[C@@H]2COC(N)=O` (stereo partly specified), for which the GI50 is 1.22 µM in test [1]; 0.807 µM in [2]; 0.465 µM in test [3]; 0.0325 µM in [5]; 0.965 µM in [10]. In addition, the TGI in [1] was 7.22 µM; in test [2], above 100 µM; in [3], 3.04 µM; in test [4], 1.63 µM; in test [5], above 100 µM; in test [6], 0.631 µM. In addition, the TGI in [10] was above 100 µM; in [8] it was 5.33 µM; in test [9], 1.46 µM.

For `CC1=NN(C(=O)c2ccccc2O)C(=O)/C1=C/c1cccc([N+](=O)[O-])c1`, the TGI in [1], in test [2], in [4], in [5], in [6] and in test [10] was above 100 µM each time. The TGI in test [7] was above 100 µM; in test [8] it was above 100 µM; in [9], above 31.8 µM.

For the compound `Nc1ccc(S(=O)(=O)Nc2cnc3c(Cl)cccc3n2)cc1`, the GI50 in test [1] was 99.6 µM; in [2] it was 43.5 µM; in test [3], above 55.8 µM; in test [5], 23.1 µM; in test [10] it was 36.4 µM; in test [7], 40.1 µM. In addition, the GI50 in [9] was above 82.4 µM. Besides, the TGI is 709 µM in [1]; above 562 µM in test [2]; > 56.2 µM and 742 µM in test [3]; above 750 µM in test [4]; above 750 µM in test [5]; above 627 µM in test [6]. In addition, the TGI in test [10] is above 750 µM; in test [7], above 750 µM; in test [8] it was 163 µM; in test [9] it was 549 µM.

On to `CC1(C)CC[C@]2(C(N)=O)CC[C@]3(C)C(=CC[C@@H]4[C@@]5(C)C/C(=C/c6ccncc6)C(=O)C(C)(C)[C@@H]5CC[C@]43C)[C@@H]2C1`, for which the GI50 was 1.79 µM in test [1]; 1.69 µM in test [2]; 1.48 µM in [3]; 2.02 µM in [4]; 2.18 µM in test [5]; 1.77 µM in [6]. Moreover, the GI50 in test [10] is 2.28 µM; in test [7], 3.2 µM; in test [8], 3.13 µM; in [9], 2.89 µM. The TGI in [1] amounted to 3.41 µM; in test [2] it was 3.46 µM; in [3], 2.91 µM; in test [4] it was 4.33 µM; in test [5], 6.5 µM; in [6] it was 3.27 µM. The TGI in test [10] is 6.71 µM; in test [7], above 100 µM; in [8], 11.9 µM; in test [9], 9.62 µM.

`COc1cc(NC(=O)Nc2cnc(Nc3ccc(N4CCOCC4)cc3)nc2Oc2cccc(OC)c2)cc(OC)c1`: the GI50 was 2.19 µM in [1]; 5.35 µM in [2]; 1.3 µM in [3]; 1.61 µM in test [4]; 2.71 µM in test [5]; 1.13 µM in test [6]. Besides, the results for the GI50 in test [7], in test [8] and in [9] were 1.31 µM, 2.79 µM and 1.82 µM, respectively. Further, the TGI in test [1] was 22.5 µM; in test [2] it was above 50 µM; in [3], 6.74 µM; in [4], 6.84 µM; in test [5], above 50 µM; in [6], 2.65 µM. Moreover, the TGI in test [7] was 3.19 µM; in [8], 11.1 µM; in [9], 11.8 µM.

For `COc1cc2cc3c4c(cc(OC)c(OC)c4c2cc1OC)CCN3C(=O)CCC(=O)NCCCN(C)C`, the TGI is above 100 µM in test [1]; above 100 µM in [2]; above 100 µM in test [3]; above 100 µM in test [4]; 62 µM in [5]; 28.2 µM in test [6]. Also, the TGI in [10], in [7], in test [8] and in [9] was above 100 µM each time.

With `CC1COCC(C)N1C1=C(Cl)C(=O)c2ccccc2C1=O` (stereo unspecified), the GI50 in test [1] is 12.4 µM; in test [2] it was 6.5 µM; in [3] it was 1.39 µM; in test [4], 1.66 µM; in test [5], 2.28 µM; in test [6] it was 6.83 µM. Moreover, the GI50 in test [10] is 2.81 µM; in test [7], 3.73 µM; in [8], 17.9 µM; in test [9], 11.2 µM. Besides, the TGI stood at 25.4 µM in test [1]; 23.4 µM in test [2]; 2.73 µM in test [3]; 3.06 µM in test [4]; 5.97 µM in test [5]; 19.9 µM in test [6]. Also, the TGI worked out at 12 µM in [10], 13.6 µM in test [7], 31.8 µM in test [8] and 24.7 µM in [9].

As for `O=c1[nH]c2ccccc2n1-c1n[nH]c2ccccc12`, the GI50 is 3.21 µM in test [1]; 31 µM in test [2]; 12.5 µM in test [3]; 29.9 µM in test [4]; 18.1 µM in [5]; 16.9 µM in test [6]. Besides, the GI50 in test [10] was 31.3 µM; in test [7], 35.3 µM; in test [8], 73 µM; in test [9] it was 38.5 µM. Besides, the TGI in test [1] is above 100 µM; in test [2], above 100 µM; in [3] it was above 100 µM; in [4], above 100 µM; in [5], 73.1 µM; in test [6], 35.9 µM. For the same compound, the TGI in test [10], in test [7], in test [8] and in test [9] was above 100 µM in each case.

With `COc1cc([N+](=O)[O-])c2ncccc2c1[N+](=O)[O-]`, the GI50 in test [1] is 2.98 µM; in test [2], 5.39 µM; in test [4], 4.75 µM; in test [5], 3.33 µM; in test [6], 12.6 µM; in test [10] it was 3.97 µM. Further, the values for the GI50 in test [7], in test [8] and in [9] were 4.33 µM, 12.6 µM and 3.91 µM, respectively. For the same compound, the TGI in test [1] is 10.5 µM; in test [2], 21.6 µM; in test [4], 16.5 µM; in [5] it was above 100 µM; in test [6], 25.3 µM; in test [10] it was above 100 µM. The TGI in [7] is 15.9 µM; in test [8], 25.4 µM; in test [9] it was 16.1 µM.

With `CCC1CNC(=O)CC1CC(=O)OC` (stereo unspecified), the TGI in test [1], in [2], in test [3], in test [4], in test [5] and in test [6] was above 100 µM each time. Besides, the TGI in test [10], in [8] and in [9] was above 100 µM in each case.

On to `C#CCN(Cc1ccc2nc(N)[nH]c(=O)c2c1)c1ccc(C(=O)NC(CCC(=O)O)C(=O)O)cc1` (stereo unspecified), for which the TGI in [1], in [2], in test [3], in test [4], in test [5] and in [6] was above 100 µM each time. The TGI in [7], in test [8] and in test [9] was above 100 µM throughout.

With `O=S(=O)(c1ccc(O)c(C=Nc2ccc(Cl)cc2)c1)c1ccc(O)c(C=Nc2ccc(Cl)cc2)c1`, the TGI in [1], in test [3], in test [4], in [5], in test [6] and in [10] was above 100 µM each time. For the same compound, the TGI in test [7], in test [8] and in test [9] was above 100 µM each time.
